# Numbers after ± are expanded uncertainties.
# Assay: molar heat capacity at constant pressure
# Settings: Liquid, Large sample (1 g) DSC
structure (smiles),measurement,setting,value
"FC(F)(F)CC(F)(F)F [1,1,1,3,3,3-hexafluoropropane]",molar heat capacity at constant pressure,"315.15 K, 1480 kPa",195.67 ± 6.8 J/K/mol
same,molar heat capacity at constant pressure,"315.15 K, 2490 kPa",193.7 ± 6.8 J/K/mol
same,molar heat capacity at constant pressure,"315.15 K, 3540 kPa",192.48 ± 6.7 J/K/mol
same,molar heat capacity at constant pressure,"315.15 K, 4560 kPa",191.42 ± 6.7 J/K/mol
same,molar heat capacity at constant pressure,"315.15 K, 5410 kPa",190.05 ± 6.7 J/K/mol
same,molar heat capacity at constant pressure,"320.15 K, 1480 kPa",198.71 ± 7 J/K/mol
same,molar heat capacity at constant pressure,"320.15 K, 2490 kPa",196.59 ± 6.8 J/K/mol
same,molar heat capacity at constant pressure,"320.15 K, 3540 kPa",194.91 ± 6.8 J/K/mol
same,molar heat capacity at constant pressure,"320.15 K, 4560 kPa",193.7 ± 6.8 J/K/mol
same,molar heat capacity at constant pressure,"320.15 K, 5410 kPa",192.78 ± 6.7 J/K/mol
same,molar heat capacity at constant pressure,"325.15 K, 1480 kPa",202.06 ± 7.1 J/K/mol
same,molar heat capacity at constant pressure,"325.15 K, 2490 kPa",199.78 ± 7 J/K/mol
same,molar heat capacity at constant pressure,"325.15 K, 3540 kPa",197.95 ± 7 J/K/mol
same,molar heat capacity at constant pressure,"325.15 K, 4560 kPa",196.43 ± 6.8 J/K/mol
same,molar heat capacity at constant pressure,"325.15 K, 5410 kPa",195.67 ± 6.8 J/K/mol
same,molar heat capacity at constant pressure,"330.15 K, 1480 kPa",205.71 ± 7.1 J/K/mol
same,molar heat capacity at constant pressure,"330.15 K, 2490 kPa",203.28 ± 7.1 J/K/mol
same,molar heat capacity at constant pressure,"330.15 K, 3540 kPa",201.45 ± 7 J/K/mol
same,molar heat capacity at constant pressure,"330.15 K, 4560 kPa",199.78 ± 7 J/K/mol
same,molar heat capacity at constant pressure,"330.15 K, 5410 kPa",199.02 ± 7 J/K/mol
same,molar heat capacity at constant pressure,"335.15 K, 1480 kPa",209.36 ± 7.3 J/K/mol
same,molar heat capacity at constant pressure,"335.15 K, 2490 kPa",207.08 ± 7.3 J/K/mol
same,molar heat capacity at constant pressure,"335.15 K, 3540 kPa",205.1 ± 7.1 J/K/mol
same,molar heat capacity at constant pressure,"335.15 K, 4560 kPa",203.28 ± 7.1 J/K/mol
same,molar heat capacity at constant pressure,"335.15 K, 5410 kPa",202.21 ± 7.1 J/K/mol
same,molar heat capacity at constant pressure,"340.15 K, 1480 kPa",213.46 ± 7.4 J/K/mol
same,molar heat capacity at constant pressure,"340.15 K, 2490 kPa",210.73 ± 7.3 J/K/mol
same,molar heat capacity at constant pressure,"340.15 K, 3540 kPa",208.6 ± 7.3 J/K/mol
same,molar heat capacity at constant pressure,"340.15 K, 4560 kPa",206.77 ± 7.3 J/K/mol
same,molar heat capacity at constant pressure,"340.15 K, 5410 kPa",205.56 ± 7.1 J/K/mol
same,molar heat capacity at constant pressure,"345.15 K, 1480 kPa",218.02 ± 7.6 J/K/mol
same,molar heat capacity at constant pressure,"345.15 K, 2490 kPa",214.83 ± 7.4 J/K/mol
same,molar heat capacity at constant pressure,"345.15 K, 3540 kPa",212.25 ± 7.4 J/K/mol
same,molar heat capacity at constant pressure,"345.15 K, 4560 kPa",210.27 ± 7.3 J/K/mol
same,molar heat capacity at constant pressure,"345.15 K, 5410 kPa",208.9 ± 7.3 J/K/mol
same,molar heat capacity at constant pressure,"350.15 K, 1480 kPa",223.34 ± 7.8 J/K/mol
same,molar heat capacity at constant pressure,"350.15 K, 2490 kPa",219.24 ± 7.6 J/K/mol
same,molar heat capacity at constant pressure,"350.15 K, 3540 kPa",216.35 ± 7.6 J/K/mol
same,molar heat capacity at constant pressure,"350.15 K, 4560 kPa",214.07 ± 7.4 J/K/mol
same,molar heat capacity at constant pressure,"350.15 K, 5410 kPa",212.4 ± 7.4 J/K/mol
same,molar heat capacity at constant pressure,"355.15 K, 2490 kPa",224.56 ± 7.9 J/K/mol
same,molar heat capacity at constant pressure,"355.15 K, 3540 kPa",221.22 ± 7.8 J/K/mol
same,molar heat capacity at constant pressure,"355.15 K, 4560 kPa",218.33 ± 7.6 J/K/mol
same,molar heat capacity at constant pressure,"355.15 K, 5410 kPa",216.35 ± 7.6 J/K/mol
same,molar heat capacity at constant pressure,"360.15 K, 2490 kPa",231.1 ± 8.1 J/K/mol
same,molar heat capacity at constant pressure,"360.15 K, 3540 kPa",226.84 ± 7.9 J/K/mol
same,molar heat capacity at constant pressure,"360.15 K, 4560 kPa",223.5 ± 7.8 J/K/mol
same,molar heat capacity at constant pressure,"360.15 K, 5410 kPa",221.06 ± 7.8 J/K/mol
same,molar heat capacity at constant pressure,"365.15 K, 2490 kPa",239.92 ± 8.4 J/K/mol
same,molar heat capacity at constant pressure,"365.15 K, 3540 kPa",233.53 ± 8.2 J/K/mol
same,molar heat capacity at constant pressure,"365.15 K, 4560 kPa",230.49 ± 8.1 J/K/mol
same,molar heat capacity at constant pressure,"365.15 K, 5410 kPa",227.45 ± 7.9 J/K/mol
"FC(F)CC(F)(F)F [1,1,1,3,3-pentafluoropropane]",molar heat capacity at constant pressure,"315.15 K, 1590 kPa",184.58 ± 7.1 J/K/mol
same,molar heat capacity at constant pressure,"315.15 K, 2520 kPa",184.05 ± 7.1 J/K/mol
same,molar heat capacity at constant pressure,"315.15 K, 3480 kPa",183.78 ± 7.1 J/K/mol
same,molar heat capacity at constant pressure,"315.15 K, 4530 kPa",182.98 ± 7.1 J/K/mol
same,molar heat capacity at constant pressure,"315.15 K, 5500 kPa",182.44 ± 7.1 J/K/mol
same,molar heat capacity at constant pressure,"320.15 K, 1590 kPa",185.79 ± 7.2 J/K/mol
same,molar heat capacity at constant pressure,"320.15 K, 2520 kPa",185.12 ± 7.1 J/K/mol
same,molar heat capacity at constant pressure,"320.15 K, 3480 kPa",184.72 ± 7.1 J/K/mol
same,molar heat capacity at constant pressure,"320.15 K, 4530 kPa",183.91 ± 7.1 J/K/mol
same,molar heat capacity at constant pressure,"320.15 K, 5500 kPa",183.24 ± 7.1 J/K/mol
same,molar heat capacity at constant pressure,"325.15 K, 1590 kPa",187.8 ± 7.2 J/K/mol
same,molar heat capacity at constant pressure,"325.15 K, 2520 kPa",186.73 ± 7.2 J/K/mol
same,molar heat capacity at constant pressure,"325.15 K, 3480 kPa",186.19 ± 7.2 J/K/mol
same,molar heat capacity at constant pressure,"325.15 K, 4530 kPa",185.39 ± 7.1 J/K/mol
same,molar heat capacity at constant pressure,"325.15 K, 5500 kPa",184.58 ± 7.1 J/K/mol
same,molar heat capacity at constant pressure,"330.15 K, 1590 kPa",191.02 ± 7.4 J/K/mol
same,molar heat capacity at constant pressure,"330.15 K, 2520 kPa",189.95 ± 7.4 J/K/mol
same,molar heat capacity at constant pressure,"330.15 K, 3480 kPa",189.01 ± 7.4 J/K/mol
same,molar heat capacity at constant pressure,"330.15 K, 4530 kPa",188.07 ± 7.2 J/K/mol
same,molar heat capacity at constant pressure,"330.15 K, 5500 kPa",187.13 ± 7.2 J/K/mol
same,molar heat capacity at constant pressure,"335.15 K, 1590 kPa",195.31 ± 7.5 J/K/mol
same,molar heat capacity at constant pressure,"335.15 K, 2520 kPa",194.37 ± 7.5 J/K/mol
same,molar heat capacity at constant pressure,"335.15 K, 3480 kPa",193.16 ± 7.5 J/K/mol
same,molar heat capacity at constant pressure,"335.15 K, 4530 kPa",191.82 ± 7.4 J/K/mol
same,molar heat capacity at constant pressure,"335.15 K, 5500 kPa",191.02 ± 7.4 J/K/mol
same,molar heat capacity at constant pressure,"340.15 K, 1590 kPa",200.13 ± 7.8 J/K/mol
same,molar heat capacity at constant pressure,"340.15 K, 2520 kPa",199.2 ± 7.6 J/K/mol
same,molar heat capacity at constant pressure,"340.15 K, 3480 kPa",197.85 ± 7.6 J/K/mol
same,molar heat capacity at constant pressure,"340.15 K, 4530 kPa",196.25 ± 7.6 J/K/mol
same,molar heat capacity at constant pressure,"340.15 K, 5500 kPa",195.44 ± 7.5 J/K/mol
same,molar heat capacity at constant pressure,"345.15 K, 1590 kPa",204.83 ± 7.9 J/K/mol
same,molar heat capacity at constant pressure,"345.15 K, 2520 kPa",204.02 ± 7.9 J/K/mol
same,molar heat capacity at constant pressure,"345.15 K, 3480 kPa",202.55 ± 7.8 J/K/mol
same,molar heat capacity at constant pressure,"345.15 K, 4530 kPa",200.94 ± 7.8 J/K/mol
same,molar heat capacity at constant pressure,"345.15 K, 5500 kPa",200.13 ± 7.8 J/K/mol
same,molar heat capacity at constant pressure,"350.15 K, 1590 kPa",209.52 ± 8 J/K/mol
same,molar heat capacity at constant pressure,"350.15 K, 2520 kPa",208.44 ± 8 J/K/mol
same,molar heat capacity at constant pressure,"350.15 K, 3480 kPa",207.1 ± 8 J/K/mol
same,molar heat capacity at constant pressure,"350.15 K, 4530 kPa",205.5 ± 7.9 J/K/mol
same,molar heat capacity at constant pressure,"350.15 K, 5500 kPa",204.56 ± 7.9 J/K/mol
same,molar heat capacity at constant pressure,"355.15 K, 1590 kPa",214.07 ± 8.3 J/K/mol
same,molar heat capacity at constant pressure,"355.15 K, 2520 kPa",212.73 ± 8.2 J/K/mol
same,molar heat capacity at constant pressure,"355.15 K, 3480 kPa",211.66 ± 8.2 J/K/mol
same,molar heat capacity at constant pressure,"355.15 K, 4530 kPa",210.05 ± 8.2 J/K/mol
same,molar heat capacity at constant pressure,"355.15 K, 5500 kPa",208.98 ± 8 J/K/mol
same,molar heat capacity at constant pressure,"360.15 K, 1590 kPa",219.3 ± 8.4 J/K/mol
same,molar heat capacity at constant pressure,"360.15 K, 2520 kPa",217.69 ± 8.4 J/K/mol
same,molar heat capacity at constant pressure,"360.15 K, 3480 kPa",216.76 ± 8.4 J/K/mol
same,molar heat capacity at constant pressure,"360.15 K, 4530 kPa",214.74 ± 8.3 J/K/mol
same,molar heat capacity at constant pressure,"360.15 K, 5500 kPa",213.67 ± 8.3 J/K/mol
same,molar heat capacity at constant pressure,"365.15 K, 1590 kPa",226.54 ± 8.7 J/K/mol
same,molar heat capacity at constant pressure,"365.15 K, 2520 kPa",224.26 ± 8.7 J/K/mol
same,molar heat capacity at constant pressure,"365.15 K, 3480 kPa",222.65 ± 8.6 J/K/mol
same,molar heat capacity at constant pressure,"365.15 K, 4530 kPa",220.51 ± 8.6 J/K/mol
same,molar heat capacity at constant pressure,"365.15 K, 5500 kPa",219.44 ± 8.4 J/K/mol

# From the NIST ThermoML archive (doi:10.1016/j.jct.2015.06.014)
